Experimental data: the NIST ThermoML archive (doi:10.1016/j.jct.2011.08.016)

Test: xn = mol fraction of the nth substance listed
Settings: Liquid, Vibrating tube method

CCCCCCCCCC [decane] + CCCCCCCC
Settings	mass density [kg/m3]
313.14 K, 1000 kPa, x2 = 0.0616	714.37
313.14 K, 2000 kPa, x2 = 0.0616	715.15
313.14 K, 3000 kPa, x2 = 0.0616	716
313.14 K, 4000 kPa, x2 = 0.0616	716.89
313.14 K, 5000 kPa, x2 = 0.0616	717.71
313.14 K, 6000 kPa, x2 = 0.0616	718.51
313.14 K, 7000 kPa, x2 = 0.0616	719.36
313.14 K, 8000 kPa, x2 = 0.0616	720.16
313.14 K, 9000 kPa, x2 = 0.0616	720.97
313.14 K, 10000 kPa, x2 = 0.0616	721.75
313.14 K, 10990 kPa, x2 = 0.0616	722.52
313.14 K, 12000 kPa, x2 = 0.0616	723.27
313.14 K, 13000 kPa, x2 = 0.0616	724.05
313.14 K, 14000 kPa, x2 = 0.0616	724.81
313.14 K, 15000 kPa, x2 = 0.0616	725.5
313.14 K, 16000 kPa, x2 = 0.0616	726.26
313.14 K, 17000 kPa, x2 = 0.0616	726.99
313.14 K, 18000 kPa, x2 = 0.0616	727.69
313.14 K, 19000 kPa, x2 = 0.0616	728.37
313.14 K, 20000 kPa, x2 = 0.0616	729.06
313.14 K, 21000 kPa, x2 = 0.0616	729.73
313.14 K, 22000 kPa, x2 = 0.0616	730.38
313.14 K, 23000 kPa, x2 = 0.0616	731.03
313.14 K, 24000 kPa, x2 = 0.0616	731.6
313.14 K, 25000 kPa, x2 = 0.0616	732.22
313.17 K, 1000 kPa, x2 = 0.2801	709.26
313.17 K, 1000 kPa, x2 = 0.9623	688.85
313.17 K, 2000 kPa, x2 = 0.2801	710.07
313.17 K, 2000 kPa, x2 = 0.9623	689.77
313.17 K, 3000 kPa, x2 = 0.2801	710.9
313.17 K, 3000 kPa, x2 = 0.9623	690.64
313.17 K, 4000 kPa, x2 = 0.2801	711.79
313.17 K, 4000 kPa, x2 = 0.9623	691.53
313.17 K, 5000 kPa, x2 = 0.2801	712.65
313.17 K, 5000 kPa, x2 = 0.9623	692.37
313.17 K, 6000 kPa, x2 = 0.2801	713.47
313.17 K, 6000 kPa, x2 = 0.9623	693.31
313.17 K, 7000 kPa, x2 = 0.2801	714.32
313.17 K, 7000 kPa, x2 = 0.9623	694.24
313.17 K, 8000 kPa, x2 = 0.2801	715.17
313.17 K, 8000 kPa, x2 = 0.9623	695.11
313.17 K, 9000 kPa, x2 = 0.2801	715.99
313.17 K, 9000 kPa, x2 = 0.9623	696.04
313.17 K, 10000 kPa, x2 = 0.2801	716.81
313.17 K, 10000 kPa, x2 = 0.9623	696.93
313.17 K, 10990 kPa, x2 = 0.2801	717.63
313.17 K, 10990 kPa, x2 = 0.9623	697.85
313.17 K, 12000 kPa, x2 = 0.2801	718.42
313.17 K, 12000 kPa, x2 = 0.9623	698.72
313.17 K, 13000 kPa, x2 = 0.2801	719.2
313.17 K, 13000 kPa, x2 = 0.9623	699.57
313.17 K, 14000 kPa, x2 = 0.2801	719.98
313.17 K, 14000 kPa, x2 = 0.9623	700.45
313.17 K, 15000 kPa, x2 = 0.2801	720.74
313.17 K, 15000 kPa, x2 = 0.9623	701.33
313.17 K, 16000 kPa, x2 = 0.2801	721.5
313.17 K, 16000 kPa, x2 = 0.9623	702.18
313.17 K, 17000 kPa, x2 = 0.2801	722.23
313.17 K, 17000 kPa, x2 = 0.9623	703
313.17 K, 18000 kPa, x2 = 0.2801	723
313.17 K, 18000 kPa, x2 = 0.9623	703.81
313.17 K, 19000 kPa, x2 = 0.2801	723.67
313.17 K, 19000 kPa, x2 = 0.9623	704.6
313.17 K, 20000 kPa, x2 = 0.2801	724.35
313.17 K, 20000 kPa, x2 = 0.9623	705.32
313.17 K, 21000 kPa, x2 = 0.2801	725.02
313.17 K, 21000 kPa, x2 = 0.9623	706.06
313.17 K, 22000 kPa, x2 = 0.2801	725.7
313.17 K, 22000 kPa, x2 = 0.9623	706.8
313.17 K, 23000 kPa, x2 = 0.2801	726.3
313.17 K, 23000 kPa, x2 = 0.9623	707.48
313.17 K, 24000 kPa, x2 = 0.2801	726.9
313.17 K, 24000 kPa, x2 = 0.9623	708.16
313.17 K, 25000 kPa, x2 = 0.2801	727.55
313.17 K, 25000 kPa, x2 = 0.9623	708.78
313.19 K, 1000 kPa, x2 = 0.5314	702.8
313.19 K, 1000 kPa, x2 = 0.7736	695.32
313.19 K, 2000 kPa, x2 = 0.5314	703.69
313.19 K, 2000 kPa, x2 = 0.7736	696.27
313.19 K, 3000 kPa, x2 = 0.5314	704.53
313.19 K, 3000 kPa, x2 = 0.7736	697.14
313.19 K, 4000 kPa, x2 = 0.5314	705.35
313.19 K, 4000 kPa, x2 = 0.7736	698.01
313.19 K, 5000 kPa, x2 = 0.5314	706.16
313.19 K, 5000 kPa, x2 = 0.7736	698.89
313.19 K, 6000 kPa, x2 = 0.5314	707.05
313.19 K, 6000 kPa, x2 = 0.7736	699.8
313.19 K, 7000 kPa, x2 = 0.5314	707.93
313.19 K, 7000 kPa, x2 = 0.7736	700.67
313.19 K, 8000 kPa, x2 = 0.5314	708.77
313.19 K, 8000 kPa, x2 = 0.7736	701.55
313.19 K, 9000 kPa, x2 = 0.5314	709.59
313.19 K, 9000 kPa, x2 = 0.7736	702.44
